The values that follow come from the RepoRT retention time repository.

This series in a line: RP, Waters ACQUITY UPLC HSS T3, 0.1 mL/min; A: water + 0.01% formic acid; B: acetonitrile + 0.01% formic acid; gradient (min/%B) 0/10 38/45 45/45 55/0 60/0. The settings on record: stereoisomer not certain.
As to `COc1cc(OC)nc(NC(=O)NS(=O)(=O)c2ncccc2C(=O)N(C)C)n1` [Nicosulfuron], the LC retention time amounted to 15.2 min.
Regarding `COc1cc(OC)nc(NC(=O)NS(=O)(=O)c2cc(NC=O)ccc2C(=O)N(C)C)n1` [Foramsulfuron], the LC retention time stood at 17.9 min.
With `CNC1=C(c2cccc(C(F)(F)F)c2)C(=O)C(c2ccccc2)O1` (stereo not drawn) [Flurtamone], the LC retention time is 34.1 min.
Take `O=C1Nc2ccc(Cl)cc2C(c2ccccc2)=NC1O` (stereo not drawn) [Oxazepam]: the LC retention time was 20.6 min.
Then `CCNC(=O)C(C)OC(=O)Nc1ccccc1` (stereo not drawn) [Carbetamide], with 13.5 min.
With `CC(C)NC(=O)N1CC(=O)N(c2cc(Cl)cc(Cl)c2)C1=O` [Iprodione] the figure was 39.9 min.
With `CSC1=NC(C)(c2ccccc2)C(=O)N1Nc1ccccc1` (stereo not drawn) [Fenamidone] the figure was 35.8 min; with `CN1CCC23c4c5ccc(O)c4OC2C(O)C=CC3C1C5` (stereo not drawn) [Morphine], 4.26 min; with `CC12CCC3c4cc(O)c(O)cc4CCC3C1CCC2O` (stereo not drawn) [Estradiol-2-hydroxy], 21.5 min.
In the case of `Cn1c(=O)c2c(ncn2C)n(C)c1=O` [Caffeine], the LC retention time was 5.71 min.
With `COP(=S)(OC)Oc1nc(Cl)c(Cl)cc1Cl` [Chlorpyrifos-methyl] the figure was 43.9 min.
Consider `Nc1ccccc1` [Aniline], for which the LC retention time is 3.1 min.
Then `CC1=NNC(=O)N(N=Cc2cccnc2)C1` [Pymetrozine], with 26.7 min; and `CN(C)C(=O)Nc1ccc(Cl)c(Cl)c1` [Diuron], with 23.7 min.
With `CNCC(O)c1ccc(O)c(O)c1` (stereo not drawn) [Epinephrine] the figure was 4.39 min; with `CCCCCC=CCC=CC=CC=CC(SCC(N)C(=O)NCC(=O)O)C(O)CCCC(=O)O` (stereo not drawn) [Leukotriene D4], 33 min.
Then `CCOP(=S)(OCC)Oc1cc(C)nc(C(C)C)n1` [Diazinon], with 43.4 min; and `COc1cc(OC)n2nc(NS(=O)(=O)c3c(C(F)(F)F)ccnc3OC)nc2n1` [Pyroxsulam], with 20.3 min; and `CC12CCC(=O)C=C1CCC1C2C(O)CC2(C=O)C(C(=O)CO)CCC12` (stereo not drawn) [Aldosterone], with 13.8 min.
For `Nc1nc2ccccc2[nH]1` [Aminobenzimidazole], the LC retention time is 4.74 min.
With `CS(=O)(=O)c1cc(C(F)(F)F)ccc1C(=O)c1cnoc1C1CC1` [Isoxaflutole], the LC retention time amounted to 35.3 min.
Turning to `CSc1nnc(C(C)(C)C)c(=O)n1N` [Metribuzine], the LC retention time was 15.6 min.
Take `Cc1cc(C2CC2)nc(Nc2ccccc2)n1` [Cyprodinil]: the LC retention time is 33.2 min.
In the case of `CC(C)(C)C(O)C(Oc1ccc(Cl)cc1)n1cncn1` (stereo not drawn) [Triadimenol], the LC retention time is 31.6 min.
As to `CC12CCC3C(CC=C4CC(O)CCC43C)C1CCC2=O` (stereo not drawn) [Dehydroepiandrosterone], the LC retention time stood at 31.7 min.
For the compound `CC(C)N(C(=O)COc1nnc(C(F)(F)F)s1)c1ccc(F)cc1` [Flufenacet], the LC retention time worked out at 41.1 min.
With `COC(=O)c1ccc(CNS(C)(=O)=O)cc1S(=O)(=O)NC(=O)Nc1nc(OC)cc(OC)n1` [Mesosulfuron-methyl] the figure was 26.6 min; with `CC(C)N(C(=O)CCl)c1ccccc1` [Propachlore], 25.8 min; with `CNC(=O)Oc1cccc2c1OC(C)(C)C2` [Carbofuran], 18.6 min.
With `NCCc1ccc(O)c(O)c1` [Dopamine] the figure was 3.88 min.
For the compound `CCCCCC(O)C=CC1C(O)CC(O)C1CC=CCCCC(=O)O` (stereo not drawn) [Prostaglandin F2a], the LC retention time stood at 25.6 min.
Then `CCCOC(=O)c1ccc(O)cc1` [Propylparaben], with 22 min; and `CNC(=N[N+](=O)[O-])NCc1cnc(Cl)s1` [Clothianidin], with 7.99 min; and `COC(=O)Nc1nc2ccccc2[nH]1` [Carbendazim], with 5.69 min.
Then `O=C(O)COc1nc(Cl)c(Cl)cc1Cl` [Triclopyr], with 25 min.
With `COc1ccc(C(=O)c2ccccc2)c(O)c1` [Oxybenzone] the figure was 40.6 min; with `Cc1cc(C)nc(Nc2ccccc2)n1` [Pyrimethanil], 22.2 min.
Take `NC(Cc1c[nH]c2ccccc12)C(=O)O` (stereo not drawn) [Tryptophan]: the LC retention time is 5.4 min.
As to `COC(=O)c1cccc(C)c1S(=O)(=O)NC(=O)Nc1nc(OCC(F)(F)F)nc(N(C)C)n1` [Triflusulfuron-methyl], the LC retention time was 39 min.
Then `CS(=O)(=O)c1ccc(C(=O)C2C(=O)CCCC2=O)c(Cl)c1` [Sulcotrione], with 18.6 min; and `CNCCC(Oc1ccc(C(F)(F)F)cc1)c1ccccc1` (stereo not drawn) [Fluoxetine], with 23.7 min; and `COC(=O)c1ccc(I)cc1S(=O)(=O)NC(=O)Nc1nc(C)nc(OC)n1` [Iodosulfuron-methyl], with 30.4 min.
As for `CCOC(=O)CC(SP(=S)(OC)OC)C(=O)OCC` (stereo not drawn) [Malathion], the LC retention time was 40.8 min.
With `[O-][n+]1nc(-n2ccnc2)nc2ccc(Cl)cc21` [Triazoxide] the figure was 16 min; with `CCNc1nc(N)nc(Cl)n1` [Atrazine-desisopropyl], 6.98 min.
Then `COc1nc(NC(=O)NS(=O)(=O)c2ccccc2C(F)(F)F)nc(C(F)(F)F)n1` [Tritosulfuron], with 35.9 min.
As for `COC(=O)N(OC)c1ccccc1COc1ccn(-c2ccc(Cl)cc2)n1` [Pyraclostrobine], the LC retention time is 43.5 min.
Then `CN1C(=O)CCC1c1cccnc1` (stereo not drawn) [Cotinine], with 4.31 min; and `CC(C)c1ccc(NC(=O)N(C)C)cc1` [Isoproturon], with 23.4 min; and `CCNc1nc(Cl)nc(NCC)n1` [Simazine], with 14.5 min.
Then `CC(=O)C1CCC2C3CC=C4CC(O)CCC4(C)C3CCC12C` (stereo not drawn) [Pregnenolone], with 41.8 min; and `COc1cc(OC)nc(NC(=O)NS(=O)(=O)N(C)S(C)(=O)=O)n1` [Amidosulfuron], with 21.2 min.
For `Nc1ccc(O)cc1` [4-Aminophenol], the LC retention time amounted to 1.3 min.
With `CCCOc1nn(C(=O)NS(=O)(=O)c2ccccc2C(=O)OC)c(=O)n1C` [Propoxycarbazone] the figure was 22.1 min.
Turning to `COC(=O)c1ccc(C)cc1C1=NC(C)(C(C)C)C(=O)N1` (stereo not drawn) [Imazamethabenz-methyl], the LC retention time came out at 14.2 min.
With `C#CC1(O)CCC2C3CCc4cc(O)ccc4C3CCC21C` (stereo not drawn) [Ethinylestradiol] the figure was 31.6 min; with `CC1CCC2C(C)C3C(CC4C5CC=C6CC(O)CCC6(C)C5CCC43C)N2C1` (stereo not drawn) [Solanidine], 24.5 min.
As to `CCCOC(=O)NCCCN(C)C` [Propamocarb], the LC retention time was found to be 5.59 min.
Then `O=C(O)c1ccccc1O` [Salicylic acid], with 8.4 min; and `CC12CCC(=O)C=C1CCC1C2C(O)CC2(C)C1CCC2(O)C(=O)CO` (stereo not drawn) [Hydrocortisone], with 15.9 min.
With `COC(=O)c1ccccc1S(=O)(=O)NC(=O)Nc1nc(C)nc(OC)n1` [Metsulfuron-methyl], the LC retention time was found to be 19.4 min.
Consider `Cc1ccc(C(=O)O)c(Cl)c1` [2-chloro-4-methylbenzoic acid], for which the LC retention time came to 44.3 min.
Then `CCC(C)C(=O)OC1CC(O)C=C2C=CC(C)C(CCC(O)CC(O)CC(=O)O)C21` (stereo not drawn) [Pravastatin], with 20.5 min; and `O=C(C=CC=Cc1ccc2c(c1)OCO2)N1CCCCC1` [Piperine], with 36.4 min; and `CON(C)C(=O)Nc1ccc(Br)cc1` [Metobromuron], with 24.5 min.
Then `Nc1c(Cl)c(F)nc(OCC(=O)O)c1Cl` [Fluroxypyr], with 14.4 min.
Then `COc1nc(C)nc(NC(=O)NS(=O)(=O)c2ccccc2CCC(F)(F)F)n1` [Prosulfuron], with 34.5 min.
With `CC(=O)Nc1ccc(O)cc1` [Paracetamol], the LC retention time was determined as 4.98 min.
Then `NC(=O)N1c2ccccc2C=Cc2ccccc21` [Carbamazepine], with 18 min; and `O=C(Nc1ccccc1-c1ccc(Cl)cc1)c1cccnc1Cl` [Boscalid], with 38 min.
With `N#CCNC(=O)c1cnccc1C(F)(F)F` [Flonicamid] the figure was 7.52 min.
With `CCCN(CCOc1c(Cl)cc(Cl)cc1Cl)C(=O)n1ccnc1` [Prochloraz] the figure was 38.7 min; with `Fc1ccc(C2CCNCC2COc2ccc3c(c2)OCO3)cc1` (stereo not drawn) [Paroxetine], 18.3 min.
